{"source": "patent US20210015884A1", "about": "(priority 2018, published 2021)", "key": {"[1]": {"tested_on": "m^6A methylation in viral RNA", "type": "cell-based, influenza A virus"}, "IVA/PC virus [2]": {"tested_on": "IVA/PC virus", "type": "cell-based, influenza A virus"}, "IVA/PC virus [3]": {"tested_on": "IVA/PC virus", "test": "microbe, parasite or virus in culture", "type": "cell-based", "settings": "Influenza A virus, MDCK, read-out: IC50 of Zanamivir"}}, "data": [{"molecule": "5′ GGACUGGACUGGACUGGACU 3′ (chemistry not given here) [Target]", "values": [{"measurement": "m^6A methylation in corresponding viral RNA", "setting": "[1]", "value": "concomitant decrease"}]}, {"molecule": "Cc1ccc(Cl)c(Nc2ccccc2C(=O)O)c1Cl", "note": "[MA, meclofenamic acid]", "values": [{"measurement": "effect on viral resistance to Zanamivir", "setting": "IVA/PC virus [2]", "value": "potentiates viral resistance to Zanamivir"}]}, {"molecule": "CC(=O)N[C@H]1[C@H]([C@H](O)[C@H](O)CO)OC(C(=O)O)=C[C@@H]1N=C(N)N", "note": "[Zanamivir]", "values": [{"measurement": "IC50", "setting": "IVA/PC virus [3]", "value": 2, "unit": "nM"}]}]}
